According to PubChem BioAssay AID248 (DTP/NCI, 2004):
Where “and” joins values, the source holds several entries; their conditions need not be identical. Identical values can stand only once. Inconclusive results and toxic doses are left out. No stated cut-off is given here; in the data, active means T/C of 150% or more; inactive means T/C below 125%.

System: L1210 leukemia ip in BDF1 mice, survival T/C
Experiment: NCI In Vivo Anticancer Drug Screen. Data for tumor model L1210 Leukemia (intraperitoneal) in B6D2F1 (BDF1) mice
Conditions: endpoint: mean survival time, higher = longer survival
Method in brief: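 Survival endpoint. Drug-treated group vs vehicle group, expressed as T divided by C. Tumor passaged by transplantation.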

[1] = dose: 100.0 mg/kg/injection, schedule: Q01DX001 (ip), vehicle: saline
[2] = dose: 400.0 mg/kg/injection, schedule: Q01DX001 (ip), vehicle: saline
[3] = dose: 200.0 mg/kg/injection, schedule: Q01DX001 (ip), vehicle: saline
[4] = dose: 100.0 mg/kg/injection, schedule: Q01DX009 (ip), vehicle: Klucel (hydroxypropylcellulose) (HPC)
[5] = dose: 100.0 mg/kg/injection, schedule: Q04DX003 (ip), vehicle: Klucel (hydroxypropylcellulose) (HPC)
[6] = dose: 200.0 mg/kg/injection, schedule: Q01DX009 (ip), vehicle: Klucel (hydroxypropylcellulose) (HPC)
[7] = dose: 200.0 mg/kg/injection, schedule: Q04DX003 (ip), vehicle: Klucel (hydroxypropylcellulose) (HPC)
[8] = dose: 400.0 mg/kg/injection, schedule: Q01DX009 (ip), vehicle: Klucel (hydroxypropylcellulose) (HPC)
[9] = dose: 100.0 mg/kg/injection, schedule: Q01DX009 (ip), vehicle: saline
[10] = dose: 100.0 mg/kg/injection, schedule: Q04DX003 (ip), vehicle: saline
[11] = dose: 200.0 mg/kg/injection, schedule: Q04DX003 (ip), vehicle: saline
[12] = dose: 100.0 mg/kg/injection, schedule: Q04DX002 (ip), vehicle: saline with Tween-80
[13] = dose: 200.0 mg/kg/injection, schedule: Q04DX002 (ip), vehicle: saline with Tween-80
[14] = dose: 100.0 mg/kg/injection, schedule: Q01DX009 (ip), vehicle: saline with Tween-80
[15] = dose: 200.0 mg/kg/injection, schedule: Q01DX009 (ip), vehicle: saline with Tween-80
[16] = dose: 100.0 mg/kg/injection, schedule: Q01DX001 (ip), vehicle: other
[17] = dose: 200.0 mg/kg/injection, schedule: Q01DX001 (ip), vehicle: other
[18] = dose: 400.0 mg/kg/injection, schedule: Q01DX001 (ip), vehicle: other
[19] = dose: 400.0 mg/kg/injection, schedule: Q04DX003 (ip), vehicle: saline

Measured: T/C

O=C(OC1COC(OC(=O)c2ccccc2)C(OC(=O)c2ccccc2)C1OC(=O)c1ccccc1)c1ccccc1 (centres undefined)
inactive: dose: 50.0 mg/kg/injection, schedule: Q01DX001 (ip), vehicle: carboxymethylcellulose (CMC) 96 % of control | dose: 100.0 mg/kg/injection, schedule: Q01DX001 (ip), vehicle: Klucel (hydroxypropylcellulose) (HPC) 102 % of control | dose: 100.0 mg/kg/injection, schedule: Q01DX001 (ip), vehicle: acetone 92 % of control | dose: 100.0 mg/kg/injection, schedule: Q01DX001 (ip), vehicle: carboxymethylcellulose (CMC) 102 % of control and 103 % of control | [1] 90 % of control | dose: 200.0 mg/kg/injection, schedule: Q01DX001 (ip), vehicle: Klucel (hydroxypropylcellulose) (HPC) 102 % of control | dose: 200.0 mg/kg/injection, schedule: Q01DX001 (ip), vehicle: acetone 88 % of control | dose: 200.0 mg/kg/injection, schedule: Q01DX001 (ip), vehicle: carboxymethylcellulose (CMC) 94 % of control and 91 % of control | dose: 400.0 mg/kg/injection, schedule: Q01DX001 (ip), vehicle: Klucel (hydroxypropylcellulose) (HPC) 109 % of control | dose: 400.0 mg/kg/injection, schedule: Q01DX001 (ip), vehicle: acetone 90 % of control | dose: 400.0 mg/kg/injection, schedule: Q01DX001 (ip), vehicle: carboxymethylcellulose (CMC) 94 % of control | [2] 95 % of control

CC(CCCCC1NC(=O)NC1C)C(=O)O (centres undefined)
inactive: [1] 95 % of control | [3] 90 % of control | [2] 90 % of control

ClC1=C(Cl)C2(Cl)C(C1Cl)C1(Cl)C(Cl)=C(Cl)C2(Cl)C1Cl (centres undefined)
inactive: [4] 97 % of control | [5] 102 % of control | [6] 97 % of control | [7] 104 % of control | [8] 97 % of control | dose: 400.0 mg/kg/injection, schedule: Q04DX003 (ip), vehicle: Klucel (hydroxypropylcellulose) (HPC) 93 % of control

COC(=O)C(Br)CBr (centres undefined)
inactive: dose: 25.0 mg/kg/injection, schedule: Q01DX009 (ip), vehicle: saline 100 % of control | dose: 50.0 mg/kg/injection, schedule: Q01DX009 (ip), vehicle: saline 105 % of control | [9] 98 % of control and 105 % of control | [10] 102 % of control | [11] 116 % of control

O=[N+]([O-])c1ccc(/C=N/Nc2c3ccccc3nc3ccccc23)cc1
inactive: [2] 94 % of control

O=C1C=CC(=O)C2=C1C1c3ccccc3C2c2ccccc21
inactive: dose: 50.0 mg/kg/injection, schedule: Q04DX002 (ip), vehicle: saline with Tween-80 95 % of control | [12] 95 % of control and 98 % of control | [13] 92 % of control | dose: 400.0 mg/kg/injection, schedule: Q04DX002 (ip), vehicle: saline with Tween-80 114 % of control

CCOC(=O)CNCCN(CC)CC
inactive: dose: 100.0 mg/kg/injection, schedule: Q01DX001 (ip), vehicle: saline with Tween-80 101 % of control | dose: 200.0 mg/kg/injection, schedule: Q01DX001 (ip), vehicle: saline with Tween-80 111 % of control | dose: 400.0 mg/kg/injection, schedule: Q01DX001 (ip), vehicle: saline with Tween-80 94 % of control

Nc1nc(N)c(N=Nc2ccc([As](=O)(O)O)c(O)c2)c(=O)[nH]1
inactive: [1] 91 % of control | [3] 93 % of control | [2] 93 % of control

O=C(O)/C(Br)=C(\Br)c1ccccc1
inactive: [14] 101 % of control | [15] 92 % of control | dose: 400.0 mg/kg/injection, schedule: Q01DX009 (ip), vehicle: saline with Tween-80 95 % of control

CCN(CCCl)CCCNc1c2ccc(Cl)cc2nc2ccc(OC)nc12
inactive: dose: 1.5 mg/kg/injection, schedule: Q01DX009 (ip), vehicle: saline 119 % of control | dose: 6.0 mg/kg/injection, schedule: Q01DX009 (ip), vehicle: saline 91 % of control

C=C1C=C(C)N(C(=O)c2ccc(Cl)cc2)CCN1C(=O)c1ccc(Cl)cc1
inactive: [4] 100 % of control | [6] 90 % of control | [8] 92 % of control

COc1ccc(/C=C2N=C(/C=C/c3ccccc3)OC\2=O)cc1OC
inactive: dose: 100.0 mg/kg/injection, schedule: Q04DX002 (ip), vehicle: gum acacia 88 % of control | dose: 200.0 mg/kg/injection, schedule: Q04DX002 (ip), vehicle: gum acacia 95 % of control | dose: 400.0 mg/kg/injection, schedule: Q04DX002 (ip), vehicle: gum acacia 88 % of control

CCOCc1nc(N)nc(N)c1-c1cccc(Cl)c1
inactive: [14] 104 % of control | [15] 117 % of control

CCCCCCCCCCCCCCCCCC(=O)OCC(=O)C(OC(=O)CCCCCCCCCCCCCCCCC)C(OC(=O)CCCCCCCCCCCCCCCCC)C(COC(=O)CCCCCCCCCCCCCCCCC)OC(=O)CCCCCCCCCCCCCCCCC (centres undefined)
inactive: [16] 95 % of control | [17] 98 % of control | [18] 93 % of control

COc1ccc(NCNc2ccc(OC)cc2)cc1
inactive: dose: 50.0 mg/kg/injection, schedule: Q01DX009 (ip), vehicle: Klucel (hydroxypropylcellulose) (HPC) 94 % of control | [4] 98 % of control | [5] 103 % of control | [7] 103 % of control

CCOC(=O)c1c[nH]c2c(Cl)cc(Cl)cc2c1=O
inactive: [16] 104 % of control | [17] 95 % of control | [18] 101 % of control

CC(=O)NCCCCCCCCCCNC(C)=O
inactive: dose: 10.0 mg/kg/injection, schedule: Q01DX Z (ip), vehicle: saline 91 % of control | dose: 30.0 mg/kg/injection, schedule: Q01DX Z (ip), vehicle: saline 95 % of control | dose: 100.0 mg/kg/injection, schedule: Q01DX Z (ip), vehicle: saline 95 % of control | dose: 300.0 mg/kg/injection, schedule: Q01DX Z (ip), vehicle: saline 98 % of control

Cc1cc(NS(=O)(=O)c2ccc(N)cc2)no1
inactive: [9] 97 % of control | [10] 104 % of control | dose: 200.0 mg/kg/injection, schedule: Q01DX009 (ip), vehicle: saline 94 % of control | [11] 99 % of control | dose: 400.0 mg/kg/injection, schedule: Q01DX009 (ip), vehicle: saline 96 % of control | [19] 114 % of control

CNc1ccccn1
inactive: dose: 75.0 mg/kg/injection, schedule: Q01DX001 (ip), vehicle: carboxymethylcellulose (CMC) 95 % of control | dose: 150.0 mg/kg/injection, schedule: Q01DX001 (ip), vehicle: carboxymethylcellulose (CMC) 97 % of control | dose: 300.0 mg/kg/injection, schedule: Q01DX001 (ip), vehicle: carboxymethylcellulose (CMC) 101 % of control

O=C1NC(=O)C(=O)N1
inactive: [10] 96 % of control | [11] 96 % of control | [19] 86 % of control

O=Cc1ccc2cc(Cl)ccc2n1
inactive: [16] 93 % of control | [17] 110 % of control | [18] 106 % of control

O=C(c1ccccc1)c1cccc(C(Br)Br)c1
inactive: dose: 100.0 mg/kg/injection, schedule: Q04DX003 (ip), vehicle: saline with Tween-80 96 % of control | dose: 200.0 mg/kg/injection, schedule: Q04DX003 (ip), vehicle: saline with Tween-80 95 % of control | dose: 400.0 mg/kg/injection, schedule: Q04DX003 (ip), vehicle: saline with Tween-80 95 % of control

CC#CCCC(=O)OCCCCC
inactive: [12] 97 % of control | [13] 102 % of control
